The source of these data is ChEMBL document CHEMBL4825666, “Antitrypanosomal Lactones from Nectandra barbellata” (J Nat Prod, 2021).

For data set [1], the system named is Cell membrane. The experiment in a line: Induction of plasma membrane depolarization in trypomastigote forms of Trypanosoma cruzi Y at IC50 measured after 2 hrs by DiSBAC2(3)-probe based assay.
A further data set concerns the target Cytochrome P450 3A4 (Homo sapiens, UniProt P08684). The experiment in a line: Inhibition of CYP3A4 (unknown origin). Type of data set: ADME.
The nature of data set [2]: Cytotoxicity against mouse NCTC clone 929 cells assessed as reduction in cell viability after 48 hrs by MTT assay. Type of data set: cell-based.
Data set [3] in a line: Selectivity index, ratio of CC50 for cytotoxicity against mouse NCTC clone 929 cells to IC50 for trypomastigote forms of Trypanosoma cruzi Y infected in LLC-MK2 cells. As to conditions: read-out: Ratio CC50/IC50. Type of data set: toxicity, cell-based.
A further data set deals with Cytochrome P450 2C9 (Homo sapiens, UniProt P11712). The data set is described as follows: Inhibition of CYP2C9 (unknown origin). Type of data set: ADME.
The subject of data set [4] is Trypanosoma cruzi. The experiment in a line: Antitrypanosomal activity against trypomastigote forms of Trypanosoma cruzi Y infected in LLC-MK2 cells assessed as parasite growth inhibition by resazurin assay. Type of data set: functional, organism-based. A general note: The colour change of resazurin is a common sign of viable cells or microbes.
The next data set addresses Cytochrome P450 2C19 (Homo sapiens, UniProt P33261). The data set is described as follows: Inhibition of CYP2C19 (unknown origin). Type of data set: ADME.
The target in another data set is Cytochrome P450 2D6 (Homo sapiens, UniProt P10635). The data set is described as follows: Inhibition of CYP2D6 (unknown origin). Type of data set: ADME.
The next data set has as its target T1, Cytochrome P450 1A2 (Homo sapiens, UniProt P05177).
T1 sequence (P05177 whole entry): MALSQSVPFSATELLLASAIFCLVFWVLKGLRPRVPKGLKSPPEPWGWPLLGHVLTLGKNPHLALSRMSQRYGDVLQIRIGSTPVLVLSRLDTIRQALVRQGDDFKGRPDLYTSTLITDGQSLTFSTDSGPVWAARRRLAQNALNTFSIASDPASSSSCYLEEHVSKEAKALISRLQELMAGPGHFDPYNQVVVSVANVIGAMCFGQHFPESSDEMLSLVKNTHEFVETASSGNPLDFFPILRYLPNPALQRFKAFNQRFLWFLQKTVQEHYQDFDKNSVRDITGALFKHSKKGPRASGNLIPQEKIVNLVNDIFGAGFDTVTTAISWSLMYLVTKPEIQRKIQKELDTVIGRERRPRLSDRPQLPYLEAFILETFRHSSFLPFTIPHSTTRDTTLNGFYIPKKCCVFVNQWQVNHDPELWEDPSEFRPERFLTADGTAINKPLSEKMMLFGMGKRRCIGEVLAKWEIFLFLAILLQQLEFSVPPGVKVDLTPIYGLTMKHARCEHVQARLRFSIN
The experiment in a line: Inhibition of CYP1A2 (unknown origin). Type of data set: ADME.

In data set [5] the test system is Trypanosoma cruzi. The experiment in a line: Induction of mitochondrial membrane depolarization in trypomastigote forms of Trypanosoma cruzi Y at IC50 measured after 2 hrs by JC-1 staining based flow cytometry. Type of data set: functional, organism-based. In general terms: In flow cytometry, cells or beads pass a laser one at a time.
Data set [6] concerns Trypanosoma cruzi. The data set is described as follows: Antitrypanosomal activity against trypomastigote forms of Trypanosoma cruzi Y assessed as increase in ATP levels at IC50 incubated for 1 hrs by microplate reader method. Type of data set: functional, organism-based.
Data set [7] relates to Trypanosoma cruzi. The experiment in a line: Antitrypanosomal activity against Trypanosoma cruzi Y assessed as increase in calcium level at IC50 measured upto 160 min by Fluo-4 AM probe-based spectrofluorimetric method. The following applies: time min <=160. Type of data set: functional, organism-based.
Data set [8] concerns Trypanosoma cruzi. The data set is described as follows: Induction of acidocalcisome alkalinization in trypomastigotes form of Trypanosoma cruzi Y assessed as upregulation of Ca2+ level at IC50 using acridine orange measured after 60 min by fluorescent based assay.
Data set [9] relates to Cell membrane. The data set is described as follows: Induction of cell membrane permeability in trypomastigote forms of Trypanosoma Cruzi Y at IC50 measured after 120 mins by SYSTOX Green assay. Type of data set: subcellular.
The test system of data set [10] is Trypanosoma cruzi. The experiment in a line: Induction of ROS generation in trypomastigote forms of Trypanosoma cruzi Y assessed as effect on reactive oxygen species level at IC50 for 2 hrs by fluorimetric microplate reader method. Type of data set: functional, organism-based.
The test system of data set [11] is Cell membrane. The experiment in a line: Induction of cell membrane permeability in trypomastigote forms of Trypanosoma Cruzi Y at IC50 measured after 80 mins by SYSTOX Green assay. Type of data set: subcellular.
For data set [12], the system named is Trypanosoma cruzi. The experiment in a line: Antitrypanosomal activity against trypomastigote forms of Trypanosoma cruzi Y assessed as increase in ATP levels at IC50 incubated for 2 hrs by microplate reader method. Type of data set: functional, organism-based.

Structures are written as SMILES. Activity calls are given as the source filed them. The calls are words filed in the database; no cut-off is given here.

Cytochrome P450 2C9, sequence (P11712 whole entry): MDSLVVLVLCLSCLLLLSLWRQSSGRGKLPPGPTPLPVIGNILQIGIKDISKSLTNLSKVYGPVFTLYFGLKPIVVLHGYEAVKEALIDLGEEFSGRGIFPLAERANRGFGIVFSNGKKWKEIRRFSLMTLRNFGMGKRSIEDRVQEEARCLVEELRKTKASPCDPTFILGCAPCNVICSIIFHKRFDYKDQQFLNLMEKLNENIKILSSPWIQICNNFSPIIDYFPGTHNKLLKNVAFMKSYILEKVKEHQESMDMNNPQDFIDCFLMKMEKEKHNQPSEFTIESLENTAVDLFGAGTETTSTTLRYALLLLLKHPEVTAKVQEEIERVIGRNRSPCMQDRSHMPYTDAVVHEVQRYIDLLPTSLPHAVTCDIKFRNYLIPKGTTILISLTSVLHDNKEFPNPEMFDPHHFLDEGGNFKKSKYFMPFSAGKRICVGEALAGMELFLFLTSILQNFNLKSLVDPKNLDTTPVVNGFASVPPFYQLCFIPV
Cytochrome P450 2C19, sequence (P33261 whole entry): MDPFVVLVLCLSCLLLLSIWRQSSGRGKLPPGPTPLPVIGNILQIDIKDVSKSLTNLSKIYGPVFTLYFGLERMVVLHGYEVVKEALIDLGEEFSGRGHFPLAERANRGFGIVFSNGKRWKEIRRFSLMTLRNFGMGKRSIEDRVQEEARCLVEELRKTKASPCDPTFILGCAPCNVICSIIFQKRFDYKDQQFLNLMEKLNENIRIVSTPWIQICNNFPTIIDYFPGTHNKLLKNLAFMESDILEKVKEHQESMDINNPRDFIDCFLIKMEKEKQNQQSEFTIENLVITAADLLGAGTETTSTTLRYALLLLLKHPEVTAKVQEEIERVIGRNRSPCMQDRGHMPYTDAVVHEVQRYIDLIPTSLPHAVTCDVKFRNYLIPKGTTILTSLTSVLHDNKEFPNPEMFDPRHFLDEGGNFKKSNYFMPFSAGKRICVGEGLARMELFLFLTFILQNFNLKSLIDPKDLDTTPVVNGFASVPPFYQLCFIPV
Cytochrome P450 3A4, sequence (P08684 whole entry): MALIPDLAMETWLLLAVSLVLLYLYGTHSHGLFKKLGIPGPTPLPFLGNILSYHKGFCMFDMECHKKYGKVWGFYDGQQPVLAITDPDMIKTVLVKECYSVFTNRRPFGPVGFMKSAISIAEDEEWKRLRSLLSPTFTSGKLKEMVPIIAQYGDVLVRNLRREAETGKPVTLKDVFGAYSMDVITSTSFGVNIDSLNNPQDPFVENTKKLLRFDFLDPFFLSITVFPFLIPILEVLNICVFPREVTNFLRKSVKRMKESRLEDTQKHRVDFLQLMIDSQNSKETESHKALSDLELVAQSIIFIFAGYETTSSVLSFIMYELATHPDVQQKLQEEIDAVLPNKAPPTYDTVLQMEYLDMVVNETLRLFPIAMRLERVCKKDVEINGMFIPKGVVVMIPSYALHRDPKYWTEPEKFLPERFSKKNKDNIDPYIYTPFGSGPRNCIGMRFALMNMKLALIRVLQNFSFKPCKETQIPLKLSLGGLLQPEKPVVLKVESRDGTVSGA
Cytochrome P450 2D6, sequence (P10635 whole entry): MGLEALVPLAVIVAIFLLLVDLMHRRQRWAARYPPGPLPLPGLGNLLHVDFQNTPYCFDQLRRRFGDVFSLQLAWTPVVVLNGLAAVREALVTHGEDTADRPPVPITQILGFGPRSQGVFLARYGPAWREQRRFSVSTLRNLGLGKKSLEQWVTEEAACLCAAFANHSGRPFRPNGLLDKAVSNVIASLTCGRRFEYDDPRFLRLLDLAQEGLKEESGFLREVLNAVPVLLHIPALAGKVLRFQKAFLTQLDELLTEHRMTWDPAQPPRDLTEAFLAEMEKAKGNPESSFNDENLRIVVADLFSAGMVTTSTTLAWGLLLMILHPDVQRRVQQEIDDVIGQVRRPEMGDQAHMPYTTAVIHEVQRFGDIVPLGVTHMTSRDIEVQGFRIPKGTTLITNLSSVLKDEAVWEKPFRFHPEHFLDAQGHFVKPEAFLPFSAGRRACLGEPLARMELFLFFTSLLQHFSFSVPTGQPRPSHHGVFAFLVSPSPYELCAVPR

With `CCCCCCCCCCCCCCC/C=C1/C[C@H](CO)OC1=O`, the result with Cell membrane [1] was Active. Further, the “inhibition (INH)” value against Cytochrome P450 3A4, against Cytochrome P450 2C9, at Cytochrome P450 2C19, on Cytochrome P450 2D6 and at Cytochrome P450 1A2 was “Active” in each case. Further, the half-maximal cytotoxic concentration (CC50) at 48 h in [2] came to 71.2 µM. For the same compound, the selectivity ratio in data set [3] is 17.8. Also, the half-maximal inhibitory concentration (IC50) in the data set on Trypanosoma cruzi [4] was determined as 4 µM.

As to `C=CCCCCCCCCCCCCC/C=C1/C[C@H](CO)OC1=O`, the result in the data set with Trypanosoma cruzi [5], with Trypanosoma cruzi [6], in the data set with Cell membrane [1], in the data set with Trypanosoma cruzi [7], with Trypanosoma cruzi [8] and with Cell membrane [11] was Active. In addition, the “inhibition (INH)” value against Cytochrome P450 3A4, against Cytochrome P450 2C9, against Cytochrome P450 2C19, against Cytochrome P450 2D6 and against Cytochrome P450 1A2 was “Active” each time. Further, the 50% cytotoxic concentration (CC50) at 48 h in data set [2] was over 200 µM. In data set [3], the selectivity ratio is over 15.3. The outcome in the data set with Cell membrane [9] and in the data set with Trypanosoma cruzi [10] was inactive. Also, the IC50 in the data set with Trypanosoma cruzi [4] worked out at 13.1 µM.

With `CCCCCCCCCCCCCCCCCCCCC/C=C1/C[C@H](CO)OC1=O`, the result with Trypanosoma cruzi [5], with Cell membrane [1], in the data set with Trypanosoma cruzi [7], with Trypanosoma cruzi [8] and with Cell membrane [11] was Active. The result in the data set with Trypanosoma cruzi [6], with Trypanosoma cruzi [12], in the data set with Cell membrane [9] and in the data set on Trypanosoma cruzi [10] was inactive. Further, the “inhibition (INH)” value on Cytochrome P450 3A4, against Cytochrome P450 2C9, at Cytochrome P450 2C19, at Cytochrome P450 2D6 and on Cytochrome P450 1A2 was “Not Active” in each case. In addition, in [2], the half-maximal cytotoxic concentration (CC50) at 48 h is over 200 µM. For the same compound, the selectivity ratio in data set [3] is over 95.2. Also, the 50% inhibitory concentration (IC50) in the data set with Trypanosoma cruzi [4] stood at 2.1 µM.

On to `O=C(Cn1ccnc1[N+](=O)[O-])NCc1ccccc1` [BENZNIDAZOLE], for which the half-maximal cytotoxic concentration (CC50) at 48 h in data set [2] is over 200 µM. Moreover, in data set [3], the selectivity ratio was over 12.2. In the data set on Trypanosoma cruzi [4], the IC50 came out at 16.4 µM.

A word on the CC50: it is the concentration giving 50% cytotoxicity. Usually IC50 stands for the concentration that inhibits the measured activity by half.
